Assay results as given in patent publication US20230233569A1 (Revolution Medicines, Inc., priority 2020, published 2023).

tested on: 4EBP1 (Thr37/46) phosphorylation (mTORC1) in MDA-MB-468 cells; experiment: Cell based AlphaLISA assay, mTOR kinase cellular assay: inhibition of p-4E-BP1 (T37/46) in MDA-MB-468 cells; conditions: Homo sapiens, read-out: pIC50 for Inhibition of mTORC1 and mTORC2 Substarte Phosphorylation p-4E-BP1-(T37/46) (converted)
Experimental: (§1) Cell Based AlphaLISA Assays for Determining IC50 For Inhibition of P-Akt (S473), P-4E-BP1 (T37/46), and P-P70S6K (T389) in MDA-MB-468 Cells
(§2) mTOR Kinase Cellular Assay
(§3) To measure functional activity of mTORC1 and mTORC2 in cells the phosphorylation of 4EBP1 (Thr37/46) and P70S6K (Thr389), and AKT1/2/3 (Ser473) was monitored using AlphaLisa SureFire Ultra Kits (Perkin Elmer). MDA-MB-468 cells (ATCC® HTB-132) were cultured in 96-well tissue culture plates and treated with compounds in the disclosure at concentrations varying from 0.017-1,000 nM for two to four hours at 37° C. Incubations were terminated by removal of the assay buffer and addition of lysis buffer provided with the assay kit. Samples were processed according to the manufacturer's instructions. The Alpha signal from the respective phosphoproteins was measured in duplicate using a microplate reader (Envision, Perkin-Elmer or Spectramax M5, Molecular Devices). Inhibitor concentration response curves were analyzed using normalized IC50 regression curve fitting with control based normalization.

Q: `CO[C@H]1C[C@@H]2CC[C@@H](C)[C@@](O)(O2)C(=O)C(=O)N2CCCC[C@H]2C(=O)O[C@H]([C@H](C)C[C@@H]2CC[C@@H](OC(=O)NCc3cnc(N4CCN(c5ncc(C(=O)N6CCN(c7ncc(C(=O)N8CCc9cc(Cn%10nc(-c%11ccc%12oc(N)nc%12c%11)c%11c(N)ncnc%11%10)ccc9C8)cn7)CC6)cn5)CC4)nc3)[C@H](OC)C2)CC(=O)[C@H](C)/C=C(\C)[C@@H](O)[C@@H](OC)C(=O)[C@H](C)C[C@H](C)/C=C/C=C/C=C/1C` [Example 60] was tested. Which IC50 did it give?
A: 3.16 to 31.6 nM

tested on: AKT1/2/3 (Ser473) phosphorylation (mTORC2) in MDA-MB-468 cells; experiment: Cell based AlphaLISA assay, mTOR kinase cellular assay: inhibition of p-Akt (S473) in MDA-MB-468 cells; conditions: Homo sapiens, read-out: pIC50 for Inhibition of mTORC1 and mTORC2 Substarte Phosphorylation p-AKT1/2/3-(S473) (converted)
Experimental: as §1, §2, §3

Q: `CO[C@H]1C[C@@H]2CC[C@@H](C)[C@@](O)(O2)C(=O)C(=O)N2CCCC[C@H]2C(=O)O[C@H]([C@H](C)C[C@@H]2CC[C@@H](OC(=O)NCc3cnc(N4CCN(c5ncc(C(=O)NCCOCCOCCOCCOCCC(=O)N6CCc7cc(Cn8nc(-c9cnc%10[nH]ccc%10c9)c9c(N)ncnc98)ccc7C6)cn5)CC4CO)nc3)[C@H](OC)C2)CC(=O)[C@H](C)/C=C(\C)[C@@H](O)[C@@H](OC)C(=O)[C@H](C)C[C@H](C)/C=C/C=C/C=C/1C` (some centres unmarked) [Example 41] was tested. Which IC50 did it give?
A: > 1000 nM

Q: For `CO[C@H]1C[C@@H]2CC[C@@H](C)[C@@](O)(O2)C(=O)C(=O)N2CCCC[C@H]2C(=O)O[C@H]([C@H](C)C[C@@H]2CC[C@@H](OC(=O)NCc3cnc(N4CCN(c5ncc(C(=O)NCCOCCC(=O)N6CCN(c7ncc(C(=O)NCCCCn8nc(-c9ccc%10oc(N)nc%10c9)c9c(N)ncnc98)cn7)CC6)cn5)CC4)nc3)[C@H](OC)C2)CC(=O)[C@H](C)/C=C(\C)[C@@H](O)[C@@H](OC)C(=O)[C@H](C)C[C@H](C)/C=C/C=C/C=C/1C` [Example 53], which IC50 is on record?
A: 3.16 to 31.6 nM

Q: With `CO[C@H]1C[C@@H]2CC[C@@H](C)[C@@](O)(O2)C(=O)C(=O)N2CCCC[C@H]2C(=O)O[C@H]([C@H](C)C[C@@H]2CC[C@@H](OC(=O)NCCOCCOCCOCCOCCOCCOCCOCCOCC(=O)N3CCc4cc(Cn5nc(-c6ccc7oc(N)nc7c6)c6c(N)ncnc65)ccc4C3)[C@H](OC)C2)C[C@@H](O)[C@H](C)/C=C(\C)[C@@H](O)[C@@H](OC)C(=O)[C@H](C)C[C@H](C)/C=C/C=C/C=C/1C` [Example 72] as the molecule, how does the IC50 read?
A: ≤ 3.16 nM

Q: Which IC50 does the source give for `CO[C@H]1C[C@@H]2CC[C@@H](C)[C@@](O)(O2)C(=O)C(=O)N2CCCC[C@H]2C(=O)O[C@H]([C@H](C)C[C@@H]2CC[C@@H](OC(=O)NCCOCCOCCOCCOCCOCCOCCOCCOCCC(=O)NCc3ccc(Cn4nc(-c5ccc6oc(N)nc6c5)c5c(N)ncnc54)cc3)[C@H](OC)C2)CC(=O)[C@H](C)/C=C(\C)[C@@H](O)[C@@H](OC)C(=O)[C@H](C)C[C@H](C)/C=C/C=C/C=C/1C` [Example 79] here?
A: 31.6 to 1000 nM

Q: With `CO[C@H]1C[C@@H]2CC[C@@H](C)[C@@](O)(O2)C(=O)C(=O)N2CCCC[C@H]2C(=O)O[C@H]([C@H](C)C[C@@H]2CC[C@@H](OC(=O)N3CCc4nc(N5CCN(C(=O)CCOCCN6CCN(c7ncc(C(=O)N8CCc9cc(Cn%10nc(-c%11ccc%12oc(N)nc%12c%11)c%11c(N)ncnc%11%10)ccc9C8)cn7)CC6)CC5)ncc4C3)[C@H](OC)C2)C[C@@H](OC)[C@H](C)/C=C(\C)[C@@H](O)[C@@H](OC)C(=O)[C@H](C)C[C@H](C)/C=C/C=C/C=C/1C` [Example 114] as the molecule, how does the IC50 read?
A: > 1000 nM

Q: Which IC50 does the source give for `CO[C@H]1C[C@@H]2CC[C@@H](C)[C@@](O)(O2)C(=O)C(=O)N2CCCC[C@H]2C(=O)O[C@H]([C@H](C)C[C@@H]2CC[C@@H](OC(=O)NCc3cnc(N4CCN(C(=O)CCOCCN5CCN(c6ncc(C(=O)N7CCc8cc(Cn9nc(-c%10ccc%11oc(N)nc%11c%10)c%10c(N)ncnc%109)ccc8C7)cn6)CC5)CC4)nc3)[C@H](OC)C2)CC[C@H](C)/C=C(\C)[C@@H](O)[C@@H](OC)C(=O)[C@H](C)C[C@H](C)/C=C/C=C/C=C/1C` [Example 115] here?
A: ≤ 3.16 nM

Q: How did the IC50 turn out when `CO[C@H]1C[C@@H]2CC[C@@H](C)[C@@](O)(O2)C(=O)C(=O)N2CCCC[C@H]2C(=O)O[C@H]([C@H](C)C[C@@H]2CC[C@@H](OC(=S)NCc3cnc(N4CCN(C(=O)CCOCCN5CCN(c6ncc(C(=O)N7CCc8cc(Cn9nc(-c%10ccc%11oc(N)nc%11c%10)c%10c(N)ncnc%109)ccc8C7)cn6)CC5)CC4)nc3)[C@H](OC)C2)CC(=O)[C@H](C)/C=C(\C)[C@@H](O)[C@@H](OC)C(=O)[C@H](C)C[C@H](C)/C=C/C=C/C=C/1C` [Example 116] was run?
A: > 1000 nM

Q: `CO[C@H]1C[C@@H]2CC[C@@H](C)[C@@](O)(O2)C(=O)C(=O)N2CCCC[C@H]2C(=O)O[C@H]([C@H](C)C[C@@H]2CC[C@@H](OC(=S)NCc3cnc(N4CCN(C(=O)CCOCCN5CCN(c6ncc(C(=O)N7CCc8cc(Cn9nc(-c%10ccc%11oc(N)nc%11c%10)c%10c(N)ncnc%109)ccc8C7)cn6)CC5)CC4)nc3)[C@H](OC)C2)C[C@@H](OC)[C@H](C)/C=C(\C)[C@@H](O)[C@@H](OC)C(=O)[C@H](C)C[C@H](C)/C=C/C=C/C=C/1C` [Example 118] was tested. Which IC50 did it give?
A: 3.16 to 31.6 nM

Q: With `CO[C@H]1C[C@@H]2CC[C@@H](C)[C@@](O)(O2)C(=O)C(=O)N2CCCC[C@H]2C(=O)O[C@H]([C@H](C)C[C@@H]2CC[C@@H](OC(=O)NCc3cnc(N4CCN(C(=O)CCOCCN5CCN(c6ncc(C(=O)NCCS(=O)(=O)c7ccc(C(=O)N8CCOc9ccc(-c%10ccc(N)nc%10)cc9C8)c(C)c7F)cn6)CC5)CC4)nc3)[C@H](OC)C2)C[C@@H](OC)[C@H](C)/C=C(\C)[C@@H](O)[C@@H](OC)C(=O)[C@H](C)C[C@H](C)/C=C/C=C/C=C/1C` [Example 120] as the molecule, how does the IC50 read?
A: 3.16 to 31.6 nM

Q: For `CO[C@H]1C[C@@H]2CC[C@@H](C)[C@@](O)(O2)C(=O)C(=O)N2CCCC[C@H]2C(=O)O[C@H]([C@H](C)C[C@@H]2CC[C@@H](OC(=O)NCc3cnc(N4CCN(C(=O)CCOCCN5CCN(c6ncc(C(=O)NCCS(=O)(=O)c7ccc(C(=O)N8CCOc9ccc(-c%10ccc(N)nc%10)cc9C8)c(C)c7)cn6)CC5)CC4)nc3)[C@H](OC)C2)CC(=O)[C@H](C)/C=C(\C)[C@@H](O)[C@@H](OC)C(=O)[C@H](C)C[C@H](C)/C=C/C=C/C=C/1C` [Example 121], which IC50 is on record?
A: > 1000 nM

Q: `CO[C@H]1C[C@@H]2CC[C@@H](C)[C@@](O)(O2)C(=O)C(=O)N2CCCC[C@H]2C(=O)O[C@H]([C@H](C)C[C@@H]2CC[C@@H](OC(=O)NCc3cnc(N4CCN(C(=O)CCOCCN5CCN(C(=O)CCC(=O)N6CCc7cc(Cn8nc(-c9ccc%10oc(N)nc%10c9)c9c(N)ncnc98)ccc7C6)CC5)CC4)nc3)[C@H](OC)C2)C[C@@H](O)[C@H](C)/C=C(\C)[C@@H](O)[C@@H](OC)C(=O)[C@H](C)C[C@H](C)/C=C/C=C/C=C/1C` [Example 129] was tested. Which IC50 did it give?
A: > 1000 nM

Q: For `CO[C@H]1C[C@@H]2CC[C@@H](C)[C@@](O)(O2)C(=O)C(=O)N2CCCC[C@H]2C(=O)O[C@H]([C@H](C)C[C@@H]2CC[C@@H](OC(=O)NCc3cnc(N4CCN(C(=O)CCOCCN5CCN(C(=O)CCC(=O)N6CCc7cc(Cn8nc(-c9ccc%10oc(N)nc%10c9)c9c(N)ncnc98)ccc7C6)CC5)CC4)nc3)[C@H](OC)C2)C[C@@H](OC)[C@H](C)/C=C(\C)[C@@H](O)[C@@H](OC)C(=O)[C@H](C)C[C@H](C)/C=C/C=C/C=C/1C` [Example 130], which IC50 is on record?
A: > 1000 nM

Q: How did the IC50 turn out when `CO[C@H]1C[C@@H]2CC[C@@H](C)[C@@](O)(O2)C(=O)C(=O)N2CCCC[C@H]2C(=O)O[C@H]([C@H](C)C[C@@H]2CC[C@@H](OC(=O)NCc3cnc(N4CCN(C(=O)CCOCCN5CCN(c6ncc(C(=O)N7CCc8cc(Cn9nc(-c%10ccc%11oc(N)nc%11c%10)c%10c(N)ncnc%109)ccc8C7)cn6)CC5)[C@@H](C(=O)O)C4)nc3)[C@H](OC)C2)C[C@@H](OC)[C@H](C)/C=C(\C)[C@@H](O)[C@@H](OC)C(=O)[C@H](C)C[C@H](C)/C=C/C=C/C=C/1C` [Example 131] was run?
A: 3.16 to 31.6 nM

Q: Which IC50 does the source give for `CO[C@H]1C[C@@H]2CC[C@@H](C)[C@@](O)(O2)C(=O)C(=O)N2CCCC[C@H]2C(=O)O[C@H]([C@H](C)C[C@@H]2CC[C@@H](OC(=O)NCCOCCOCCN3CCN(CCOCCOCCOCCOCCC(=O)N4CCc5cc(Cn6nc(-c7ccc8oc(N)nc8c7)c7c(N)ncnc76)ccc5C4)CC3)[C@H](OC)C2)C[C@@H](O)[C@H](C)/C=C(\C)[C@@H](O)[C@@H](OC)C(=O)[C@H](C)C[C@H](C)/C=C/C=C/C=C/1C` [Example 135] here?
A: > 1000 nM

Q: With `CO[C@H]1C[C@@H]2CC[C@@H](C)[C@@](O)(O2)C(=O)C(=O)N2CCCC[C@H]2C(=O)O[C@H]([C@H](C)C[C@@H]2CC[C@@H](OC(=O)NCc3cnc(N4CCN(C(=O)CCOCCN5CCN(c6ncc(C(=O)N7CCc8cc(Cn9nc(-c%10ccc%11oc(N)nc%11c%10)c%10c(N)ncnc%109)ccc8C7)cn6)CC5)CC4)nc3)[C@H](OC)C2)C[C@H](N=[N+]=[N-])[C@H](C)/C=C(\C)[C@@H](O)[C@@H](OC)C(=O)[C@H](C)C[C@H](C)/C=C/C=C/C=C/1C` [Example 151] as the molecule, how does the IC50 read?
A: > 1000 nM

Q: Which IC50 does the source give for `CO[C@H]1C[C@@H]2CC[C@@H](C)[C@@](O)(O2)C(=O)C(=O)N2CCCC[C@H]2C(=O)O[C@H]([C@H](C)C[C@@H]2CC[C@@H](OC(=O)NCCOCCOCCN3C[C@@H]4C[C@H]3CN4CCOCCOCCOCCOCCC(=O)N3CCc4cc(Cn5nc(-c6ccc7oc(N)nc7c6)c6c(N)ncnc65)ccc4C3)[C@H](OC)C2)C[C@@H](O)[C@H](C)/C=C(\C)[C@@H](O)[C@@H](OC)C(=O)[C@H](C)C[C@H](C)/C=C/C=C/C=C/1C` [Example 152] here?
A: 31.6 to 1000 nM
